According to US9675663B2, “TUSC2 therapies” (Board of Regents, The University of Texas System, priority 2011, dated 2017):
pIC50: −log10 of the molar value. “And” between values parts separate entries of the source, which are not always exact repeats. Equal values may be shown once. Blank lines part the entries; values can stand above or below the compound they belong to.

Key:
HCC366 and H322 cells = test: Effect of AMPK inhibitor on FUS1/MK2206-induced cell death; format: cell-based, human; conditions: AMPK inhibitor present
Protocol: FIG. 23: The effect of AMPK inhibitor on FUS1/MK2206-induced cell death. Cell survival was assessed in HCC366 and H322 cells treated with FUS1 nanoparticles and various concentrations of MK2206 in the presence or absence of AMPK inhibitor Compound C. Graphs show relative cell survival (y-axis) at various concentrations of MK2206 (x-axis) with and without AMPK inhibitor as indicated.
(§1) To better determine the mechanism for synergistic FUS1/MK2206 effect, treated cells were subjected to an immunoblots to assess the phosphorylation status of cell signaling molecules. […] Thus, FUS1-increased sensitivity to MK2206 is associated with the down-regulation of AKT and mTOR phosphorylation and up-regulation of AMPK phosphorylation. In view of these studies a proposed FUS/MK2206 signaling pathway is provided as FIG. 25.

A549 = test: IC50 of MK2206 alone or with FUS1-nanoparticles; format: cell-based; conditions: Homo sapiens
Protocol: (§2) FIG. 17: Single drug treatment of MK2206 on lung cancer cells. […] Cell lines that were further analyzed are indicated by arrows.
(§3) FIG. 18: FUS1/MK2206-induced cell death in lung cancer cell lines. Graphs show the relative survival rates for the indicated cancer cells (y-axis) when contacted with empty vector (EV) or FUS1 nanoparticles in the presence of increasing concentrations of MK2206 (x-axis).
(§4) Single drug treatment with AKT inhibitor MK2206 was also assessed in a wide range of lung cancer cell lines. Cell lines indicated by arrows (H322, A549, H2887 and […]) were subjected to further analysis. First, each of the cell lines was treated with FUS1 nanoparticles or empty vector at increasing concentrations of MK2206. […] The effect of the combined therapy was especially evident in H2887, H322 and HCC366 cells. Next, the ability of combined FUS1/MK2206 treatment to inhibit colony formation was studied in the cell lines. […] Thus, FUS1 treatment is able to sensitize cancer cells to the effects of kinase inhibitors such as the AKT inhibitor MK2206. This effect was quantified relative to each studied cell line below in Table 13.

H2887 = test: IC50 of MK2206 alone or with FUS1-nanoparticles; format: cell-based; conditions: Homo sapiens, NCI-H2887
Protocol: as §2, §3, §4

H322 = test: IC50 of MK2206 alone or with FUS1-nanoparticles; format: cell-based; conditions: Homo sapiens, NCI-H322
Protocol: as §2, §3, §4

HCC366 = test: IC50 of MK2206 alone or with FUS1-nanoparticles; format: cell-based; conditions: Homo sapiens
Protocol: as §2, §3, §4

[1] = system: phosphorylated AMPK, AKT, mTOR and S6K; test: Immunoblot of phosphorylated signaling proteins in FUS1/MK2206-treated cell lines; format: cell-based, human; conditions: addition of MK2206; HCC366 or H322 cells
Protocol: FIG. 21: Immunoblot of p-AKT, p-AMPK and p-mTOR in FUS1/MK2206-treated cell lines. Phosphorylation specific antibodies were used to assess expression of phosphorylated AMPK, AKT, mTOR and S6K in HCC366 or H322 cells. Cells were treated with empty vector (EV); FUS1 nanoparticles (FUS1); MK2206; empty vector+MK2206 (EV+MK); or FUS1 nanoparticles+MK2206 (FUS1+MK) prior to assessment for phosphorylated protein expression. Immunoblot of β-actin was used as a loading control.
as §1

H1299 cells = test: Colony formation assay; format: cell-based, human; design: Colony formation, groups 1-3 (replicates) / Colony formation, average: unit not given here; conditions: for Colony formation normalized on EV: EV + PBS = 100%; for Colony formation, average / Colony formation, groups 1-3 (replicates): number after + = μg Erlotinib; for Colony formation normalized on pc301: pc301PBS = 100%
Protocol: FIG. 6: Fus1 and Erlotinib combined treatment effect on colony formation of H1299 cells. […] “EV” indicates empty vector; Fus1 indicates a vector containing Fus1; numerical values following “erlo” indicate μg of Erlotinib; PBS indicates Phosphate-Buffer Saline control. […]
(§5) To assess cooperative effects of tumor growth data between FUS-1 (FUST) and Erlotinib (Erlo) a Bayesian Bootstrapping analysis approach was used. The Pr(min(μF, μE)<μC|(data) was calculated i.e., the posterior probability that the minimum of the two posterior mean colony formation for FUS-1 alone, μF, or Erlotinib alone, μE, […] the mean posterior colony formation for the combination μC. This probability calculates the likelihood that average colony formation in the combination arm will be less than the minimum of the two single agent arms. Cooperative effects are shown if this posterior probability is large. Thus, the probability of cooperative effect ranges from 0.0 to 1.0 where 0 means no chance of a true cooperative effect given the data observed while 1 means 100% certainty of a cooperative effect given the data observed. The Statistical software S-PLUS 8.0 were used for all the analyses.

H322 cells = test: Colony formation assay; format: cell-based, human; design: Colony formation, groups 1-3 (replicates) / Colony formation, average: unit not given here; conditions: for Colony formation normalized on EV: EV + PBS = 100%; for Colony formation, average / Colony formation, groups 1-3 (replicates): number after + = μg Erlotinib; for Colony formation normalized on pc301: pc301PBS = 100%
Protocol: FIG. 7: Fus1 and Erlotinib combined treatment effect on colony formation of H322 cells. […] “EV” indicates empty vector; Fus1 indicates a vector containing Fus1; numerical values following “+” indicate μg of Erlotinib; PBS indicates Phosphate-Buffer Saline control. […]
as §5

A549 cells = test: Colony formation assay; format: cell-based, human; conditions: for Colony formation normalized on EV: EV + PBS = 100%; for Colony formation, average / Colony formation, groups 1-3 (replicates): number after + = μg Erlotinib; for Colony formation normalized on pc301: pc301PBS = 100%
Protocol: FIG. 8: Fus1 and Erlotinib combined treatment effect on colony formation of A549 cells. […] “EV” indicates empty vector; Fus1 indicates a vector containing Fus1; numerical values following “+” indicate μg of Erlotinib; PBS indicates Phosphate-Buffer Saline control.
as §5

H460 cells = test: Colony formation assay; format: cell-based, human; conditions: for Colony formation normalized on EV: EV + PBS = 100%; for Colony formation, average / Colony formation, groups 1-3 (replicates): number after + = μg Erlotinib
Protocol: FIG. 9: Fus1 and Erlotinib combined treatment effect on colony formation of H460 cells. […] “EV” indicates empty vector; Fus1 indicates a vector containing Fus1; numerical values following “+” indicate μg of Erlotinib; PBS indicates Phosphate-Buffer Saline control.
as §5

SMILES: c1cc(-c2cnn3cc(-c4ccc(OCCN5CCCCC5)cc4)cnc23)ccn1 [Compound C]
protection from FUS1/MK2206-mediated killing (HCC366 and H322 cells): partially protect cancer cells from FUS1/MK2206-mediated killing

pIC50 (A549): 5.54
pIC50 (H2887): 4.78
pIC50 (H322): 4.69
pIC50 (HCC366): 4.74
SMILES: NC1(c2ccc(-c3nc4ccn5c(=O)[nH]nc5c4cc3-c3ccccc3)cc2)CCC1 [MK2206]
phosphorylated AKT levels [1]: significantly reduced phosphorylated AKT levels

SMILES: C#Cc1cccc(Nc2ncnc3cc(OCCOC)c(OCCOC)cc23)c1 [Erlotinib]
Colony formation normalized on EV (H1299 cells; listed as EV + 1): 97%
Colony formation normalized on EV (H1299 cells; listed as EV + 2.3): 47%
Colony formation, average (H1299 cells; listed as EV + 1): 16866
Colony formation, groups 1-3 (replicates) (H1299 cells; listed as EV + 1): 18287.0 and 15301.0 and 17010.0
Colony formation, average (H1299 cells; listed as EV + 2.3): 8142
Colony formation, groups 1-3 (replicates) (H1299 cells; listed as EV + 2.3): 9216.0 and 8082.0 and 7128.0
Colony formation, average (H1299 cells; listed as pc301 + 1): 29960
Colony formation, groups 1-3 (replicates) (H1299 cells; listed as pc301 + 1): 31957.0 and 25107.0 and 32817.0
Colony formation, average (H1299 cells; listed as pc301 + 2.3): 21288
Colony formation, groups 1-3 (replicates) (H1299 cells; listed as pc301 + 2.3): 24425.0 and 18192.0 and 21246.0
Colony formation normalized on pc301 (H1299 cells; listed as EV + 1): 40%
Colony formation normalized on pc301 (H1299 cells; listed as EV + 2.3): 19%
Colony formation normalized on pc301 (H1299 cells; listed as pc301 + 1): 71%
Colony formation normalized on pc301 (H1299 cells; listed as pc301 + 2.3): 50%
Colony formation normalized on EV (H322 cells; listed as EV + 1): 78%
Colony formation normalized on EV (H322 cells; listed as EV + 2.3): 37%
Colony formation, average (H322 cells; listed as EV + 1): 38570
Colony formation, groups 1-3 (replicates) (H322 cells; listed as EV + 1): 43621 and 36971 and 35119
Colony formation, average (H322 cells; listed as EV + 2.3): 18091
Colony formation, groups 1-3 (replicates) (H322 cells; listed as EV + 2.3): 20293 and 16469 and 17511
Colony formation, average (H322 cells; listed as pc301 + 1): 39180
Colony formation, groups 1-3 (replicates) (H322 cells; listed as pc301 + 1): 44761 and 37701 and 35079
Colony formation, average (H322 cells; listed as pc301 + 2.3): 28211
Colony formation, groups 1-3 (replicates) (H322 cells; listed as pc301 + 2.3): 28610 and 28943 and 27080
Colony formation normalized on pc301 (H322 cells; listed as EV + 1): 65%
Colony formation normalized on pc301 (H322 cells; listed as EV + 2.3): 30%
Colony formation normalized on pc301 (H322 cells; listed as pc301 + 1): 66%
Colony formation normalized on pc301 (H322 cells; listed as pc301 + 2.3): 47%
Colony formation normalized on EV (A549 cells; listed as EV + 1): 93%
Colony formation normalized on EV (A549 cells; listed as EV + 2.3): 71%
Colony formation, average (A549 cells; listed as EV + 1): 2652
Colony formation, groups 1-3 (replicates) (A549 cells; listed as EV + 1): 3083 and 2538 and 2334
Colony formation, average (A549 cells; listed as EV + 2.3): 2044
Colony formation, groups 1-3 (replicates) (A549 cells; listed as EV + 2.3): 2484 and 1910 and 1738
Colony formation, average (A549 cells; listed as pc301 + 1): 3203
Colony formation, groups 1-3 (replicates) (A549 cells; listed as pc301 + 1): 3779 and 2436 and 3393
Colony formation, average (A549 cells; listed as pc301 + 2.3): 1693
Colony formation, groups 1-3 (replicates) (A549 cells; listed as pc301 + 2.3): 1625 and 1803 and 1651
Colony formation normalized on pc301 (A549 cells; listed as EV + 1): 47%
Colony formation normalized on pc301 (A549 cells; listed as EV + 2.3): 36%
Colony formation normalized on pc301 (A549 cells; listed as pc301 + 1): 57%
Colony formation normalized on pc301 (A549 cells; listed as pc301 + 2.3): 30%
Colony formation normalized on EV (H460 cells; listed as EV + 1): 64%
Colony formation normalized on EV (H460 cells; listed as EV + 2.3): 40%
Colony formation, average (H460 cells; listed as EV + 1): 1360
Colony formation, groups 1-3 (replicates) (H460 cells; listed as EV + 1): 1216 and 1393 and 1470
Colony formation, average (H460 cells; listed as EV + 2.3): 859
Colony formation, groups 1-3 (replicates) (H460 cells; listed as EV + 2.3): 750 and 968 and 858
